Data set [1] has as its system IL-12 mRNA. Briefly: IL-12 mRNA in LPS-activated primary murine macrophages. The data set is classed as cell-based, mouse. The following applies: normalized to LPS-treated cells without oligomeric compound; for IL-12 mRNA expression, −IFN % UTC: 300 nM oligomeric compound and LPS, no IFN-gamma pretreatment, single experiment; for IL-12 mRNA expression, +IFN % UTC: 300 nM oligomeric compound, stimulation with IFN-gamma and LPS, average of 2 experiments.

In data set [2] the test system is PEPCK-c. Kind of data set: PEPCK-c mRNA expression in HepG2 cells. The following applies: for PEPCK-c (% UTC): HepG2, 100 nM oligomeric compound; for PEPCKc mRNA: HepG2 cells, four hours, UTC = 100. Format: cell-based, human.
The mark [3] stands for this setting: Experiment 1, basal (no insulin).
Setting [4] is: Experiment 2, 1 nM insulin treated.

In the oligonucleotide strings, read from the 5' end, every base follows the letter of its sugar. An asterisk marks phosphorothioate; unmarked linkages are phosphodiester. Other units and linkages are bracketed, terminal groups are in braces. A string of capitals states the bases alone. e = 2'-O-(2-methoxyethyl) (MOE); [5mC] = 5-methylcytosine

As for “327903 (antisense eA*eA*e[5mC]*eT*eA*eT*eA*e[5mC]*eA*eA*e[5mC]*e[5mC]*eT*eA*e[5mC]*eT*eA*e[5mC]*e[5mC]*eT*e[5mC]*eA) [compound 327903]”, in data set [1], the “IL-12 mRNA expression, −IFN % UTC” value was determined as 200 % UTC and the “IL-12 mRNA expression, +IFN % UTC” value is listed as 23 % UTC. For the same substance, the “PEPCK-c (% UTC)” value in data set [2] (setting [3]) is listed as 71 % UTC. Moreover, the “PEPCK-c (% UTC)” value in data set [2] (setting [4]) stood at 87 % UTC.
On to “327901 (antisense eT*eG*eA*eG*e[5mC]*eT*eA*e[5mC]*eA*eG*eT*eG*e[5mC]*eT*eT*e[5mC]*eA*eT*e[5mC]*eT*e[5mC]*eA) [compound 327901]”, for which, in data set [1], the “IL-12 mRNA expression, −IFN % UTC” value was found to be 225 % UTC and the “IL-12 mRNA expression, +IFN % UTC” value amounted to 9 % UTC. Also, the “PEPCK-c (% UTC)” value in data set [2] (setting [3]) is 119 % UTC. Also, the “PEPCK-c (% UTC)” value in data set [2] (setting [4]) came to 117 % UTC.
For “327923 (antisense eG*eA*eA*eA*eG*eA*eG*eA*e[5mC]*e[5mC]*eG*eG*eT*eT*e[5mC]*eA*e[5mC]*eT*eG*eT*eG*eA) [compound 327923]”, in data set [1], the “IL-12 mRNA expression, −IFN % UTC” value was determined as 269 % UTC and the “IL-12 mRNA expression, +IFN % UTC” value stood at 134 % UTC. For the same substance, the “PEPCKc mRNA expression” value in data set [2] (Experiment 2, insulin treated: HepG2 cells transfected with oligomeric compound, 1 nM insulin for four hours, UTC + 1 nM insulin = 100) was determined as 125. Moreover, the “PEPCKc mRNA” value in data set [2] (setting [3]) was 83.
“327889 (antisense eG*eT*eG*eG*eT*eA*eA*eT*e[5mC]*e[5mC]*e[5mC]*eT*eG*eG*e[5mC]*eA*eA*eT*eG*eT*eG*eA*eT) [compound 327889]”: in data set [1], the “IL-12 mRNA expression, −IFN % UTC” value is on record as 153 % UTC and the “IL-12 mRNA expression, +IFN % UTC” value is given as 10 % UTC. In addition, the “PEPCK-c (% UTC)” value in data set [2] (setting [3]) was found to be 137 % UTC. In data set [2] (setting [4]), the “PEPCK-c (% UTC)” value is listed as 202 % UTC.
In the case of “327876 (antisense eA*eA*e[5mC]*eA*e[5mC]*eT*eG*eA*eT*eT*eT*e[5mC]*eA*eA*eA*eT*eG*eG*eT*eG*e[5mC]*eT*eA) [compound 327876]”, in data set [1], the “IL-12 mRNA expression, −IFN % UTC” value amounted to 194 % UTC and the “IL-12 mRNA expression, +IFN % UTC” value is listed as 9 % UTC. For the same substance, the “PEPCK-c (% UTC)” value in data set [2] (setting [3]) worked out at 119 % UTC. In addition, the “PEPCK-c (% UTC)” value in data set [2] (setting [4]) is on record as 176 % UTC.
For the substance “341800 (antisense AAGCCCAAAAGGAGAAUUCUUUG; all 2'-MOE, all phosphorothioate, methylation of C and T or U not given here) [compound 341800]”, in data set [1], the “IL-12 mRNA expression, −IFN % UTC” value worked out at 180 % UTC and the “IL-12 mRNA expression, +IFN % UTC” value came to 100 % UTC. Moreover, in data set [2] (setting [3]), the “PEPCKc mRNA” value is 71.
For the substance “327890 (antisense eA*eG*e[5mC]*eA*e[5mC]*eA*eA*eA*e[5mC]*eT*eA*e[5mC]*eT*eA*e[5mC]*e[5mC]*eT*e[5mC]*eA) [compound 327890]”, in data set [1], the “IL-12 mRNA expression, −IFN % UTC” value was 183 % UTC and the “IL-12 mRNA expression, +IFN % UTC” value was found to be 94 % UTC. The “PEPCK-c (% UTC)” value in data set [2] (setting [3]) was 85 % UTC. The “PEPCK-c (% UTC)” value in data set [2] (setting [4]) worked out at 113 % UTC.
For “327919 (antisense eG*eA*eA*eA*e[5mC]*e[5mC]*e[5mC]*eA*eG*e[5mC]*eA*eG*eA*e[5mC]*eA*eA*eT*eG*eT*eA*eG*e[5mC]*eT) [compound 327919]” the same measures were 179 % UTC, 37 % UTC, 71 % UTC and 105 % UTC.

The values above are taken from patent US8178506B2, “Oligomeric compounds and compositions for use in modulation of small non-coding RNAs” (Regulus Therapeutics Inc., priority 2003, dated 2012).
